Assay results taken from patent US5851782A, “Inhibitors of ceramidase” (Duke University, priority 1996, dated 1998).

Tests used:
HL-60 cells = experiment: Cell cycle analysis by propidium iodide flow cytometry; format: cell-based, human; conditions: HL-60, 5 μM, 48 h
Description: Proliferation and cell cycle studies. HL-60 human myelocytic leukemia cells (obtained from the American Type Culture Collection) were grown in RPMI 1640 medium containing 10 fetal calf serum at 37° C. in 5% CO2 incubator. For proliferation and cell cycle studies, cells were resuspended at a density of 2×10^5 cells/ml in serum-free media containing insulin (5 mg/liter) and transferrin (5 mg/liter) and sodium selenite (5 μg/liter) for 2-4 h. Cells were then treated with the indicated compounds. Ethanol concentration was always maintained at less than 0.1%. Cell proliferation was determined by counting cells using a hemacytometer, cell viability was evaluated by trypan blue dye exclusion, and cell cycle analysis was determined by propidium iodide flow cytometry as described (Chao et al, J. Biol. Chem. 267:23459 (1992)).

[1] = test system: ceramidase in HL-60 cells; experiment: Inhibition of L-e-MAPP metabolism in cells (ceramidase activity in cells); format: cell-based, human
Description: Metabolism studies. Lipids from cells treated with ^3 H-labeled compounds were extracted (Bligh & Dyer method), dried, resuspended in chloroform/methnol (10:1, v/v), and subjected to separation by TLC in chloroform/methanol (4:1, v/v). Spots containing radioactive compounds were scraped and radioactivity was measured using a scintillation counter.
Since D-e-MAPP inhibits ceramidase in cells, then it should also protect L-e-MAPP from metabolic degradation. Therefore, the effects of D-e-MAPP on metabolism of L-e-MAPP were examined. HL-60 cells were treated with tritium-labeled L-e-MAPP (3 μM), and the metabolism of L-e-MAPP was evaluated in the presence and absence of 3 μM D-e-MAPP. […] The effects of D-e-MAPP on metabolism of L-e-MAPP were dose dependent with most of the inhibition occurring at levels of D-e-MAPP of 1-3 μM (FIG. 8B).

[2] = test system: endogenous ceramide levels in HL-60 cells; conditions: HL-60, TLC of ceramide phosphates
Description: Ceramide and diacylglycerol levels were measured on total liquid extracts using the diacylglycerol kinase assay (Jayadev et al, J. Biol. Chem. 270:2047 (1995)).
Therefore, HL-60 cells were treated with 5 μM D-e-MAPP, ethanol vehicle or L-e-MAPP for 0-24 h. At the indicated time points (FIG. 4A), total lipids were extracted and endogenous ceramide levels were measured by the Escherichia coli diacylglycerol kinase assay.
The upper spot of ceramide phosphate co-migrated with synthetic D-erythro-C18 dihydroceramide phosphate whereas the lower spot co-migrated with D-erythro-C18 ceramide phosphate.

[3] = molecular target: T1, Glucosylceramide synthase (Homo sapiens, UniProt Q16739); experiment: Glucocerebroside (glucosylceramide) synthase assay in vitro; format: biochemical; conditions: 20 μM; for Glucosylceramide synthase activity: Control 1.009 ± 0.0424; for inhibition of cerebroside synthase activity: Table I
T1 sequence (Q16739 1-394): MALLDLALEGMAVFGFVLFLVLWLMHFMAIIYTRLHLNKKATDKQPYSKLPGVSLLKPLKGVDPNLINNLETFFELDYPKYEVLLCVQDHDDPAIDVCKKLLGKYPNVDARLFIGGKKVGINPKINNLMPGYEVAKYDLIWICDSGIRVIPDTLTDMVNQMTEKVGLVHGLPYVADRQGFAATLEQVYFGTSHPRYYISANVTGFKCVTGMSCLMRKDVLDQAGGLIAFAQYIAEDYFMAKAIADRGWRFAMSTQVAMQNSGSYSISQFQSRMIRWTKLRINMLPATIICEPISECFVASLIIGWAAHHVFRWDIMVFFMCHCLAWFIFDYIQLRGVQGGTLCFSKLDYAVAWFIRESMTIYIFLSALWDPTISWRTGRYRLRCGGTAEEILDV
Description: Glucocerebrosidase and glucocerebroside synthase assays. In vitro assays for gluccerebrosidase and for cerebroside synthase were performed as described (Abe et al, J. Biochem. (Tokyo) 11:191 (1992)).
In addition to ceramidase, inhibition of cerebroside synthase and sphingomyelin synthase or stimulation of sphingomyelinase or cerebrosidase could result in elevations in endogenous ceramide levels. Therefore, the effects of D- and L-e-MAPP were examined on these enzyme activities in vitro and in cells.

[4] = test system: ceramide-activated protein phosphatase (CAPP); experiment: CAPP serine/threonine phosphatase activity in vitro; format: biochemical; conditions: myelin basic protein phosphorylated by protein kinase A as substrate
alkaline ceramidase = experiment: Alkaline ceramidase activity in vitro at pH 9.0; format: biochemical, human; conditions: for use as substrate by alkaline ceramidase: 50 μM tritium-labeled substrate, HL-60 preparation
Description: Measurement of ceramidase activity in HL-60 cells. Ceramidase activity in HL-60 cells was measured by a modification of the method of Gatt and Yavin (Methods Enzymol. 14:139 (1969)). Cells were disrupted by sonication in 0.25M sucrose, 1 mM EDTA, and centrifuged at 10,000×g for 10 min after which the supernatant was centrifuged at 100,000×g for 60 min. Ten μl of 1 mM ceramide substrate ([^3 H]C16 -ceramide) was mixed with 100 μl of Triton X-100 (0.1%) in chloroform/methanol, 2:1, and 100 μl of 0.2% sodium cholate in chloroform/methanol, 2:1, after which the solvent was evaporated under N2 at 70° C. To this mixture, 30 μl of water was added and the tubes were heated for 5 s in an 80° C. water bath and then put on ice. Fifty μl of the appropriate buffer depending on desired pH was added followed by 20 μl of 50 mM MgCl2 and 100 μl of cell extract. In experiments using inhibitors, the desired inhibitor was added in ethanol either with the substrate or directly to the final solution. The reaction mixture was incubated for 1 h at 37° C. The ^3 H-fatty acid products of ceramidase were separated by the addition of 2 ml of Dole's solution (isopropyl alcohol, heptane, NaOH), 1.2 ml of heptane, and 1 ml of water. After vortexing and centrifugation, the upper phase was discarded and the lower phase was washed twice with heptane and the upper phase discarded each time. Finally, 1 ml of 1N H2 SO4, and 2 ml of heptane were added, and after vortexing and centrifugation the upper phase was transferred for counting by liquid scintillation.
In order to evaluate the interactions of D- and L-e-MAPP with ceramidase, in vitro studies we conducted using cytosolic and membrane fractions from HL-60 cells. Initially, ceramidase activity was examined for pH dependence using tritium-labeled C16 -ceramide as substrate. […] The alkaline ceramidase activity was very similar to that described in fibroblasts and cerebellar tissue (Sugita et al, Biochim. Biophys. Acta 398:125 (1975), Wertz and Downing, FEBS Lett. 268:110 (1990)). In initial studies, the ability of this ceramidase to utilize D-e- and L-e-MAPP as substrates was investigated. […] These studies corroborate the cellular metabolism studies showing that L-e-MAPP is a substrate for ceramidase in vitro and in cells.
Next, the ability of D- and L-e-MAPP to interfere with hydrolysis of C16 -ceramide by ceramidase at pH 4.5 and 9.0 was evaluated. Inhibition of ceramidase activity by D-e-MAPP was compared to that by N-oleoylethanolamine, a putative inhibitor of acid ceramidase (Sugita et al, Biochim. Biophys. Acta 398:125 (1975)). […] The effects of N-oleoylethanolamine are consistent with the previously reported Ki of 700 μM (Sugita et al, Biochim. Biophys. Acta 398:125 (1975)). […] In contrast, D-e-MAPP was a relatively poor inhibitor of acid ceramidase with less than 10% inhibition of acid ceramidase at 50 μM (FIG. 6C).

Structure (SMILES) | population of cells in G2/M phase (HL-60 cells; from 10% untreated) | population of cells in S phase (HL-60 cells; from 30% untreated) | population of cells in G0/G1 phase (HL-60 cells; from 60% untreated) | effect on breakdown of L-e-MAPP in cells ([1]; HL-60, 3 μM tritium-labeled L-e-MAPP, 3 μM D-e-MAPP) | levels at which most of the inhibition of L-e-MAPP metabolism occurs ([1]; HL-60, dose dependence) | selectivity of increase, ceramide versus dihydroceramide [2] | Glucosylceramide synthase activity [3] | inhibition of cerebroside synthase activity [3] | activation of CAPP in vitro [4] | use as substrate by alkaline ceramidase (alkaline ceramidase) | inhibition of alkaline ceramidase in vitro (alkaline ceramidase; final concentration of 5 μM) | IC50 (alkaline ceramidase; pH 9.0, 50 μM C16-ceramide substrate) | effect on cell cycle progression (HL-60 cells)
CCCCCCCCCCCCCC(=O)N[C@H](C)[C@@H](O)c1ccccc1 [D-e-MAPP, D-erythro-2-(N-myristolyamino)-1-phenyl-1-propanol] | 3% | 24% | 73% | prevented the breakdown of L-e-MAPP | 1 to 3 µM | selective increase in ceramide but not dihydroceramide levels | 0.946 ± 0.0265 nmol/h/mg protein | Neither D- nor L-e-MAPP caused inhibiton of cerebroside synthase activity | neither D-e-MAPP nor L-e-MAPP activated CAPP | not substrate for the alkaline ceramidase | approximately 60% | 1000 to 5000 nM | –
CCCCCCCCCCCCCC(=O)N[C@@H](C)[C@H](O)c1ccccc1 [L-e-MAPP, L-erythro-2-(N-myristolyamino)-1-phenyl-1-propanol] | – | – | – | – | – | – | 1.009 ± 0.0383 nmol/h/mg protein | Neither D- nor L-e-MAPP caused inhibiton of cerebroside synthase activity | neither D-e-MAPP nor L-e-MAPP activated CAPP | readily hydrolyzed by ceramidase to a level equivalent to that seen with C16 -ceramide | – | – | largely without effect
